The values below come from patent publication EP2153845A1, “Endoglin peptides, vaccines and methods for preparing the same” (Julius-Maximilians-Universität Würzburg, priority 2008, dated 2010).

The test system of experiment [1] is peripheral blood lymphocytes of melanoma patients. As to the kind of experiment: human IFN-γ ELISPOT after in vitro peptide stimulation of PBL. In kind it is cell-based. The conditions noted are these: for specific immune responses / T cell activity in vitro (IFN-γ ELISPOT): PBL of melanoma patients prestimulated in vitro with 10 µM peptide, Figs. 4 and 5; for specific responses in peripheral blood of melanoma patients in comparison to control experiments and parental peptides: IFN-γ ELISPOT, modified versus parental peptides, Fig. 5. The method, then:
To extend the sensitivity of the ELISPOT assay, PBL were stimulated once in vitro before analysis (McCutcheon et al., 1997). At day 0, PBL were thawed or freshly isolated from peripheral blood and plated in a cell concentration of 1x10^6/ml and 5 ml/well in 6-well plates (Greiner GmbH, Frickenhausen, Germany) in X-vivo medium (Cambrex Biosciences, Verviers, Belgium) with 10% heat inactivated human AB serum in the presence of 10 µM peptide (GeneScript Corporation, Piscataway, New Jersey, USA). On day 1 and 4 40 U IL-2/ml (Proleukin, Chiron GmbH, Munich, Gemany) were added to the culture. The cultured cells were tested for reactivity in ELISPOT on day 7.
The human IFN-γ ELISPOT assay was used to quantify peptide epitope-specific IFN-γ-releasing effector cells as described in Berke et al. 2000. Nitrocellulose-bottomed 96-well plates (MultiScreen MAIP N45, Millipore GmbH, Schwalbach, Germany) were activated with 35% ethanol, washed with PBS and coated with anti-IFN-γ antibody (1-D1 K, Mabtech, Hamburg, Germany). The wells were washed and blocked by X-vivo medium before adding 1x10^4 stimulator T2 cells loaded with or without 10 µM peptide and 3x10^5, 1x10^5 or 3x10^4 effector cells. After incubation overnight the wells were washed before addition of biotinylated secondary antibody (7-B6-1-Biotin, Mabtech, Hamburg, Germany). The plates were incubated for 2 h, washed, and streptavidine-enzyme conjugate (Streptavidin-ALP-PQ, Mabtech, Hamburg, Germany) was added. Incubation at room temperature for 1 h was followed by addition of enzyme substrate NBT/BCIP (Mabtech, Hamburg, Germany). The reaction was stopped by washing with tap water upon the appearance of dark purple spots. Spots were counted using the ImmunoSpot Series 2.0 Analyzer (CTL Cellular Technology Ltd., Schwäbisch Gmünd, Germany). The peptide-specific CTL frequency was calculated from the numbers of spot-forming cells. All assays were performed in duplicates. Responders were defined as having an average number of > 25 antigen-specific spots per 10^5 Cells (Spots with peptide - Spots without peptide).

Experiment [2] relates to HLA-A2/k^b transgenic mice. As to the kind of experiment: immunization of mice and analysis of immune responses by murine IFN-γ ELISPOT. In kind it is in vivo. To be noted: Fig. 6; for T cell IFN-γ responses after immunization of mice: HLA-A2/k^b transgenic mice vaccinated with peptides and incomplete Freund's adjuvant, spleen cells in ELISPOT; for immune responses in the mouse model in comparison to control experiments and parental epitopes: HLA-A2/k^b transgenic mice, modified versus parental peptides. The procedure:
HLA-A2/k^b transgenic mice (deposited by Linda A. Sherman at MMRCC, University of North Carolina, Chapel Hill, USA) were immunized with a mixture of 5-6 CD105 peptides (5 µg/peptide) and incomplete Freund's adjuvant 7 times once weekly. Spleen cells were analyzed in a murine IFN-γ ELISPOT after in vitro stimulation. Cells were stimulated for six days with 200 U IL-2/ml and 10 µM peptide loaded, mitomycin C treated LPS blasts, generated by stimulation of HLA-A2k^b spleen cells with 25 µg/ml LPS (Sigma-Aldrich, Taufkirchen, Germany) and 7 µg/ml dextran sulfate for three days. Subsequently 3x10^5, 1x10^5, and 0.3x10^5 spleen cells were seeded with or without 10 µM peptide in RPMI 1640/10% FCS in duplicates in nitrocellulose-bottomed 96-well plates (MultiScreen MAIP N45, Millipore GmbH) coated with an IFN-γ specific coating antibody (Mabtech) and blocked with cell culture medium and incubated overnight. The development of the murine IFN-γ ELISPOT was done as described for the human ELISPOT, with the exception that PBS/0.05% Tween 20 was used as washing buffer and the biotinylated anti-mouse IFN-γ antibody (Mabtech, diluted in PBS/1% BSA) as detection antibody. Table 1: Sequence listing

The target of experiment [3] is T1, human leukocyte antigen A2 (HLA-A2) on the acid-stripped HLA-A2 positive cell line JY (human).
T1 construct: whole, on cells; Empty, acid-stripped HLA-A2 on JY cells; also called HLA-A*0201
Description: competitive binding assay on acid-stripped JY cells, flow cytometry.

In experiment [4] the target is T1, human leukocyte antigen A2 (HLA-A2) on …. Description: competitive binding assay vs fluorescein-labeled reference peptide on acid-stripped HLA-A2 positive JY cells, flow cytometry.

Where only a bound is given, the exact number is not on record here.

For SEQ ID NO: 1 (ALLLASCSL), the “specific immune responses / T cell activity in vitro (IFN-γ ELISPOT)” value in experiment [1] is reported as “induce T cell activity in vitro very efficiently”. Regarding SEQ ID NO: 3 (LILQGPPYV), the “specific immune responses / T cell activity in vitro (IFN-γ ELISPOT)” value in experiment [1] is recorded as “induce T cell activity in vitro very efficiently”. Also, in experiment [2], the “T cell IFN-γ responses after immunization of mice” value (from here on “T cell IFN-γ responses”) is listed as “high T cell IFN-γ responses”. With SEQ ID NO: 7 (SVSEFLLQL), the “specific immune responses / T cell activity in vitro (IFN-γ ELISPOT)” value in experiment [1] is “induce T cell activity in vitro very efficiently”. For the same molecule, the “T cell IFN-γ responses” value in experiment [2] is on record as “high T cell IFN-γ responses”. As for SEQ ID NO: 8 (LLHFYTVPI), the “specific immune responses / T cell activity in vitro (IFN-γ ELISPOT)” value in experiment [1] is listed as “induce T cell activity in vitro very efficiently”. Further, the “T cell IFN-γ responses” value in experiment [2] is “high T cell IFN-γ responses”. On to SEQ ID NO: 10 (LLTAALWYI), for which the “specific immune responses / T cell activity in vitro (IFN-γ ELISPOT)” value in experiment [1] is “induce T cell activity in vitro very efficiently”. Also, the “T cell IFN-γ responses” value in experiment [2] was “high T cell IFN-γ responses”. Take SEQ ID NO: 12 (SLVASFVEV): in experiment [1], the “specific responses in peripheral blood of melanoma patients in comparison to control experiments and parental peptides” value is on record as “multiplied”; the “specific immune responses / T cell activity in vitro (IFN-γ ELISPOT)” value is “induce T cell activity in vitro very efficiently”. Further, in experiment [2], the “T cell IFN-γ responses” value is “high T cell IFN-γ responses”; the “immune responses in the mouse model in comparison to control experiments and parental epitopes” value is given as “enhanced immune responses”. The corresponding values for SEQ ID NO: 15 (FLIGALLTV) are “multiplied”, “induce T cell activity in vitro very efficiently”, “high T cell IFN-γ responses” and “enhanced immune responses”. SEQ ID NO: 16 (LLTAALWYV): in experiment [1], the “specific responses in peripheral blood of melanoma patients in comparison to control experiments and parental peptides” value is “multiplied”; the “specific immune responses / T cell activity in vitro (IFN-γ ELISPOT)” value is listed as “induce T cell activity in vitro very efficiently”. Also, in experiment [2], the “T cell IFN-γ responses” value is given as “high T cell IFN-γ responses”; the “immune responses in the mouse model in comparison to control experiments and parental epitopes” value is “enhanced immune responses”.

B1: hCD105 11-19 (peptide)
peptide: ALLLASCSL
notes: Synthetic nonamer selected from human CD105 (endoglin); also called parental peptide
With B1, the binding result in experiment [3] was “binds”.

B2: hCD105 298-306 (peptide)
peptide: GLLGEARML
notes: as for B1
Regarding B2, in experiment [3], the binding result is recorded as “binds”.

B3: hCD105 533-541 (541V) (peptide)
peptide: LLHFYTVPV
notes: also called AA541: valine
Molecule B3 had a 50% inhibitory concentration (IC50) in experiment [4] of no more than 3.5 µM.

B4: hCD105 533-541 (peptide)
peptide: LLHFYTVPI
notes: as for B1
Regarding B4, the binding result in experiment [3] is given as “binds”.

B5: hCD105 309-317 (310L, 317V) (peptide)
peptide: SLVASFVEV
notes: also called AA 310: leucine AA 317: valine
As for B5, the 50% inhibitory concentration (IC50) in experiment [4] is no more than 3.5 µM.

B6: hCD105 309-317 (peptide)
peptide: SIVASFVEL
notes: as for B1
On to B6, for which the binding result in experiment [3] is “binds”.

B7: hCD105 600-608 (608V) (peptide)
peptide: FLIGALLTV
notes: also called AA 608: valine
The molecule B7 gave an IC50 in experiment [4] of no more than 3.5 µM.

B8: hCD105 600-608 (peptide)
peptide: FLIGALLTA
notes: as for B1
On to B8, for which the binding result in experiment [3] is recorded as “binds”.

B9: hCD105 61-69 (peptide)
peptide: ILEVHVLFL
notes: as for B1
In the case of B9, the binding result in experiment [3] is recorded as “binds”.

B10: hCD105 482-490 (peptide)
peptide: SVSEFLLQL
notes: as for B1
As to B10, in experiment [3], the binding result is listed as “binds”.

B11: hCD105 251-259 (252L) (peptide)
peptide: LLLQGPPYV
notes: also called AA 252: leucine
In turn, B11 registered a 50% inhibitory concentration (IC50) in experiment [4] of no more than 3.5 µM.

B12: hCD105 251-259 (peptide)
peptide: LILQGPPYV
notes: as for B1
As to B12, the binding result in experiment [3] is reported as “binds”.

B13: hCD105 605-613 (613V) (peptide)
peptide: LLTAALWYV
notes: also called AA 613: valine
For the molecule B13, the IC50 in experiment [4] is no more than 3.5 µM.

B14: hCD105 605-613 (peptide)
peptide: LLTAALWYI
notes: as for B1
For the molecule B14, the binding result in experiment [3] is on record as “binds”.

B15: hCD105 419-427 (peptide)
peptide: SMISNEAVV
notes: as for B1
As for B15, in experiment [3], the binding result is given as “binds”.

B16: hCD105 482-490 (483L, 490V) (peptide)
peptide: SLSEFLLQV
notes: also called AA 483: leucine AA 490: valine
On to B16, for which the half-inhibitory concentration (IC50) in experiment [4] is no more than 3.5 µM.
